Measurements published in patent US10251394B2, “Molecules having pesticidal utility, and intermediates, compositions, and processes, related thereto” (Dow AgroSciences LLC, priority 2016, dated 2019).

How the values were obtained:
[1] = test system: Beet Armyworm (Spodoptera exigua); test: Bioassay on Beet Armyworm (BAW), 128-well diet tray assay; type: in vivo; details: for pest or weed control at 50 µg/cm2: Beet Armyworm, Table ABC, read-out: BAW rating; for mortality at 0.05 µg/cm2 / mortality at 0.5 µg/cm2 / mortality at 5 µg/cm2: 168 h, second instar larvae, five to seven days, read-out: BAW Percent control (or mortality); for mortality at 0.05 µg/cm2: 0.05 μg/cm^2 on artificial diet; for mortality at 0.5 µg/cm2: 0.5 μg/cm^2 on artificial diet; for mortality at 5 µg/cm2: 5 μg/cm^2 on artificial diet
In short: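 Second-instar larvae (one to five per well) placed on artificial diet surface-treated with 50 μg/cm^2 test molecule in 90:10 acetone-water, dried, eight wells per molecule. Held at 25° C, 14:10 light-dark, five to seven days; percent mortality recorded per well and averaged across the eight wells.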

[2] = test system: Cabbage Looper (Trichoplusia ni); test: Bioassay on Cabbage Looper (CL), 128-well diet tray assay; type: in vivo; details: for pest or weed control at 50 µg/cm2: Cabbage Looper, Table ABC, read-out: CL rating; for mortality at 0.05 µg/cm2 / mortality at 0.5 µg/cm2 / mortality at 5 µg/cm2: 168 h, second instar larvae, five to seven days, read-out: CL Percent control (or mortality); for mortality at 0.05 µg/cm2: 0.05 μg/cm^2 on artificial diet; for mortality at 0.5 µg/cm2: 0.5 μg/cm^2 on artificial diet; for mortality at 5 µg/cm2: 5 μg/cm^2 on artificial diet
In short: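 Second-instar larvae, one to five per well, placed on artificial diet surface-treated with 50 μg/cm^2 compound in acetone-water, eight wells per compound. Held 5-7 days at 25° C, 14:10 light-dark; percent mortality per well averaged across wells.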

Work on `C[C@@H](NC(=O)c1ccc(/C(F)=C/C(c2cc(Cl)c(Cl)c(C(C)(F)F)c2)C(F)(F)F)cc1C(F)(F)F)C(=O)NCC(F)(F)F` (stereo partly drawn) [F193, 4-((Z)-3-(3,4-Dichloro-5-(1,1-difluoroethyl)phenyl)-1,4,4,4-tetrafluorobut-1-en-1-yl)-N—((R)-1-oxo-1-((2,2,2-trifluoroethyl)amino)propan-2-yl)-2-(trifluoromethyl)benzamide] yielded a pest or weed control at 50 µg/cm2 [1] of 50 to 100% and a pest or weed control at 50 µg/cm2 [2] of 50 to 100%.
Work on `C[C@@H](NC(=O)c1ccc(/C(F)=C/C(c2cc(Cl)c(Cl)c(C#CC(C)(C)C)c2)C(F)(F)F)cc1C(F)(F)F)C(=O)NCC(F)(F)F` (stereo partly drawn) [F191, 4-((Z)-3-(3,4-Dichloro-5-(3,3-dimethylbut-1-yn-1-yl)phenyl)-1,4,4,4-tetrafluorobut-1-en-1-yl)-N—((R)-1-oxo-1-((2,2,2-trifluoroethyl)amino)propan-2-yl)-2-(trifluoromethyl)benzamide] yielded a pest or weed control at 50 µg/cm2 [1] of 50 to 100% and a pest or weed control at 50 µg/cm2 [2] of 50 to 100%.
Work on `CCNC(=O)[C@@H](C)NC(=O)c1ccc(/C(F)=C/C(c2cc(Cl)c(Cl)c(Cl)c2)C(F)(F)F)cc1Cl` (stereo partly drawn) [F64, 2-Chloro-N—((R)-1-(ethylamino)-1-oxopropan-2-yl)-4-((Z)-1,4,4,4-tetrafluoro-3-(3,4,5-trichlorophenyl)but-1-en-1-yl)benzamide] yielded a pest or weed control at 50 µg/cm2 [1] of 50 to 100% and a pest or weed control at 50 µg/cm2 [2] of 50 to 100%.
`C[C@@H](NC(=O)c1ccc(/C(F)=C/C(c2ccc(Cl)c(Cl)c2)C(F)(F)F)cc1Br)C(=O)NCC(F)(F)F` (stereo partly drawn) [F123, 2-Bromo-4-((Z)-3-(3,4-dichlorophenyl)-1,4,4,4-tetrafluorobut-1-en-1-yl)-N—((R)-1-oxo-1-((2,2,2-trifluoroethyl)amino)propan-2-yl)benzamide] gave a pest or weed control at 50 µg/cm2 [1] of 50 to 100% and a pest or weed control at 50 µg/cm2 [2] of 50 to 100%.
`C[C@@H](NC(=O)c1ccc(/C(F)=C/C(c2cc(Cl)c(Cl)c(Cl)c2)C(F)(F)F)cc1C(F)(F)F)C(=O)/C=C/CC(F)(F)F` (stereo partly shown) [F140] gave a pest or weed control at 50 µg/cm2 [1] of 50 to 100% and a pest or weed control at 50 µg/cm2 [2] of 50 to 100%.
With `CN(CC(F)(F)F)C(=O)CNC(=O)c1ccc(/C(F)=C/C(c2cc(Cl)c(Cl)c(Cl)c2)C(F)(F)F)cc1Br` (stereo not shown) [F48, (Z)-2-Bromo-N-(2-(methyl(2,2,2-trifluoroethyl)amino)-2-oxoethyl)-4-(1,4,4,4-tetrafluoro-3-(3,4,5-trichlorophenyl)but-1-en-1-yl)benzamide] the pest or weed control at 50 µg/cm2 [1] was 50 to 100% and the pest or weed control at 50 µg/cm2 [2] was 50 to 100%.
`C=CCNC(=O)[C@@H](C)NC(=O)c1ccc(/C(F)=C/C(c2cc(Cl)c(Cl)c(Cl)c2)C(F)(F)F)cc1C` (stereo partly drawn) [F14, N—((R)-1-(Allylamino)-1-oxopropan-2-yl)-2-methyl-4-((Z)-1,4,4,4-tetrafluoro-3-(3,4,5-trichlorophenyl)but-1-en-1-yl)benzamide] showed a pest or weed control at 50 µg/cm2 [1] of 50 to 100% and a pest or weed control at 50 µg/cm2 [2] of 50 to 100%.
`C[C@@H](NC(=O)c1ccc(/C(F)=C/C(c2cc(Cl)c(Cl)c(Cl)c2)C(F)(F)F)cc1C(F)(F)F)C(=O)NCC(F)(F)F` (stereo partly drawn) [F2, N—((R)-1-Oxo-1-((2,2,2-trifluoroethyl)amino)propan-2-yl)-4-((Z)-1,4,4,4-tetrafluoro-3-(3,4,5-trichlorophenyl)but-1-en-1-yl)-2-(trifluoromethyl)benzamide] was tested, and the mortality at 0.05 µg/cm2 [1] was 100%, the mortality at 0.5 µg/cm2 [1] was 100% and the mortality at 5 µg/cm2 [1] was 100%. It also gave a pest or weed control at 50 µg/cm2 [1] of 50 to 100%, a mortality at 0.05 µg/cm2 [2] of 100% and a mortality at 0.5 µg/cm2 [2] of 100%. For the same compound, the mortality at 5 µg/cm2 [2] was 100% and the pest or weed control at 50 µg/cm2 [2] was 50 to 100%.
For `O=C(NC1(C(=O)NCCC2CC2)CC1)c1ccc(/C(F)=C/C(c2cc(Cl)c(Cl)c(Cl)c2)C(F)(F)F)cc1C(F)(F)F` (stereo not shown) [F4, (Z)—N-(1-((2-cyclopropylethyl)carbamoyl)cyclopropyl)-4-(1,4,4,4-tetrafluoro-3-(3,4,5-trichlorophenyl)but-1-en-1-yl)-2-(trifluoromethyl)benzamide], the pest or weed control at 50 µg/cm2 [1] was 50 to 100% and the pest or weed control at 50 µg/cm2 [2] was 50 to 100%.
In the case of `CCN(CC(F)(F)F)C(=O)[C@@H](C)NC(=O)c1ccc(/C(F)=C/C(c2cc(Cl)c(Cl)c(Cl)c2)C(F)(F)F)cc1Br` (stereo partly drawn) [F25, 2-Bromo-N—((R)-1-(ethyl(2,2,2-trifluoroethyl)amino)-1-oxopropan-2-yl)-4-((Z)-1,4,4,4-tetrafluoro-3-(3,4,5-trichlorophenyl)but-1-en-1-yl)benzamide], the pest or weed control at 50 µg/cm2 [1] is reported as 50 to 100% and the pest or weed control at 50 µg/cm2 [2] is reported as 50 to 100%.
With `Cc1cc(/C(F)=C/C(c2cc(Cl)c(Cl)c(Cl)c2)C(F)(F)F)ccc1C(=O)N[C@H](C)C(=O)NCCC1CC1` (stereo partly drawn) [F15, N—((R)-1-((2-Cyclopropylethyl)amino)-1-oxopropan-2-yl)-2-methyl-4-((Z)-1,4,4,4-tetrafluoro-3-(3,4,5-trichlorophenyl)but-1-en-1-yl)benzamide] the pest or weed control at 50 µg/cm2 [1] was 50 to 100% and the pest or weed control at 50 µg/cm2 [2] was 50 to 100%.
Work on `Cc1cc(/C(F)=C/C(c2cc(Cl)c(Cl)c(Cl)c2)C(C)(F)F)ccc1C(=O)N[C@H](C)C(=O)NCC(F)(F)F` (stereo partly drawn) [F26, 2-Methyl-N—((R)-1-oxo-1-((2,2,2-trifluoroethyl)amino)propan-2-yl)-4-((Z)-1,4,4-trifluoro-3-(3,4,5-trichlorophenyl)pent-1-en-1-yl)benzamide] yielded a pest or weed control at 50 µg/cm2 [1] of 50 to 100% and a pest or weed control at 50 µg/cm2 [2] of 50 to 100%.
For `CN(CC(F)(F)F)C(=O)CNC(=O)c1ccc(/C(F)=C/C(c2cc(Cl)c(Cl)c(Cl)c2)C(F)(F)F)cc1C(F)(F)F` (stereo not shown) [F51, (Z)—N-(2-(Methyl(2,2,2-trifluoroethyl)amino)-2-oxoethyl)-4-(1,4,4,4-tetrafluoro-3-(3,4,5-trichlorophenyl)but-1-en-1-yl)-2-(trifluoromethyl)benzamide], the pest or weed control at 50 µg/cm2 [1] was 50 to 100% and the pest or weed control at 50 µg/cm2 [2] was 50 to 100%.
`CCC(F)(F)C(/C=C(\F)c1ccc(C(=O)NC2(C(=O)NCC(F)(F)F)CC2)c(C(F)(F)F)c1)c1cc(Cl)c(Cl)c(Cl)c1` (stereo not shown) [F88, (Z)-4-(1,4,4-Trifluoro-3-(3,4,5-trichlorophenyl)hex-1-en-1-yl)-N-(1-((2,2,2-trifluoroethyl)carbamoyl)cyclopropyl)-2-(trifluoromethyl)benzamide] showed a pest or weed control at 50 µg/cm2 [1] of 50 to 100% and a pest or weed control at 50 µg/cm2 [2] of 50 to 100%.
In the case of `CCC(F)(F)C(/C=C(\F)c1ccc(C(=O)N[C@H](C)C(=O)NCC(F)(F)F)c(C(F)(F)F)c1)c1cc(Cl)c(Cl)c(Cl)c1` (stereo partly drawn) [F174, N—((R)-1-Oxo-1-((2,2,2-trifluoroethyl)amino)propan-2-yl)-4-((Z)-1,4,4-trifluoro-3-(3,4,5-trichlorophenyl)hex-1-en-1-yl)-2-(trifluoromethyl)benzamide], the pest or weed control at 50 µg/cm2 [1] is reported as 50 to 100% and the pest or weed control at 50 µg/cm2 [2] is reported as 50 to 100%.
`O=C(NC1(C(=O)NCC(F)(F)F)CC1)c1ccc(/C(F)=C/C(c2cc(Cl)c(Cl)c(Cl)c2)C(F)(F)F)cc1Br` (stereo not shown) [F21, (Z)-2-Bromo-4-(1,4,4,4-tetrafluoro-3-(3,4,5-trichlorophenyl)but-1-en-1-yl)-N-(1-((2,2,2-trifluoroethyl)carbamoyl)cyclopropyl)benzamide] showed a pest or weed control at 50 µg/cm2 [1] of 50 to 100% and a pest or weed control at 50 µg/cm2 [2] of 50 to 100%.
Work on `C[C@@H](NC(=O)c1ccc(/C(F)=C/C(c2cc(Cl)c(Cl)c(Br)c2)C(F)(F)F)cc1C(F)(F)F)C(=O)NCC(F)(F)F` (stereo partly drawn) [F185, 4-((Z)-3-(3-Bromo-4,5-dichlorophenyl)-1,4,4,4-tetrafluorobut-1-en-1-yl)-N—((R)-1-oxo-1-((2,2,2-trifluoroethyl)amino)propan-2-yl)-2-(trifluoromethyl)benzamide] yielded a pest or weed control at 50 µg/cm2 [1] of 50 to 100% and a pest or weed control at 50 µg/cm2 [2] of 50 to 100%.
`O=C(NC1(C(=O)NCCC(F)(F)F)CC1)c1ccc(/C(F)=C/C(c2cc(Cl)c(Cl)c(Cl)c2)C(F)(F)F)cc1C(F)(F)F` (stereo not shown) [F90, (Z)-4-(1,4,4,4-Tetrafluoro-3-(3,4,5-trichlorophenyl)but-1-en-1-yl)-2-(trifluoromethyl)-N-(1-((3,3,3-trifluoropropyl)carbamoyl)cyclopropyl)benzamide] gave a pest or weed control at 50 µg/cm2 [1] of 50 to 100% and a pest or weed control at 50 µg/cm2 [2] of 50 to 100%.
Work on `CN(CC(F)(F)F)C(=O)C1(NC(=O)c2ccc(/C(F)=C/C(c3cc(Cl)c(Br)c(Cl)c3)C(F)(F)F)cc2C(F)(F)F)CC1` (stereo not shown) [F117, (Z)-4-(3-(4-Bromo-3,5-dichlorophenyl)-1,4,4,4-tetrafluorobut-1-en-1-yl)-N-(1-(methyl(2,2,2-trifluoroethyl)carbamoyl)cyclopropyl)-2-(trifluoromethyl)benzamide] yielded a pest or weed control at 50 µg/cm2 [1] of 50 to 100% and a pest or weed control at 50 µg/cm2 [2] of 50 to 100%.
With `C=Cc1cc(/C(F)=C/C(c2cc(Cl)c(Cl)c(Cl)c2)C(F)(F)F)ccc1C(=O)N[C@@H]1CON(CC(F)(F)F)C1=O` (stereo partly drawn) [F204, N—((R)-3-Oxo-2-(2,2,2-trifluoroethyl)isoxazolidin-4-yl)-4-((Z)-1,4,4,4-tetrafluoro-3-(3,4,5-trichlorophenyl)but-1-en-1-yl)-2-vinylbenzamide] the pest or weed control at 50 µg/cm2 [1] was 50 to 100% and the pest or weed control at 50 µg/cm2 [2] was 50 to 100%.
Compound `C[C@@H](NC(=O)c1ccc(/C(F)=C/C(c2cc(Cl)c(Cl)c(Cl)c2)C(F)(F)F)cc1)C(=O)NCC(F)(F)F` (stereo partly drawn) [FC2, N—((R)-1-Oxo-1-((2,2,2-trifluoroethyl)amino)propan-2-yl)-4-((Z)-1,4,4,4-tetrafluoro-3-(3,4,5-trichlorophenyl)but-1-en-1-yl)benzamide] has a mortality at 0.05 µg/cm2 [1] of 0%, a mortality at 0.5 µg/cm2 [1] of 100% and a mortality at 5 µg/cm2 [1] of 100%. The mortality at 0.05 µg/cm2 [2] was 0%, the mortality at 0.5 µg/cm2 [2] was 100% and the mortality at 5 µg/cm2 [2] was 100%.
